Tests used:
[1] = test system: SOD1 mRNA, PC12 cells; conditions: Li, et al., 1995; cited from earlier work
[2] = low concentrations; cited from earlier work
[3] = test system: neurons; conditions: cited from earlier work
[4] = test system: HSP70; test: Kainate-induced HSP70 expression in hippocampal CA1 field; format: in vivo, rat; conditions: kainate 10 mg/Kg i.p.; 24 h; mean ± sem (n = 5)
Experimental: (§1) The levels of both proteins were measured 24 h after a single injection of kainate (10 mg/Kg,i.p). The levels (assessed by quantitative immunohistochemical imaging) can be seen in Table 5.
(§2) Values are means ± sem (n = 5)
(§3) Kainate (10 mg/Kg, i.p.); Rats with seizures between stages IV severe to V
(§4) severe were used. R-2HPA (0.25 mg/Kg, s.c.) was administered 4 h after
(§5) kainate injection; HSP70 and c-Fos expression were assessed 24 h after
(§6) kainate treatment (for details of method please see Zhang et al, 1996).
(§7) Statistics were performed using ANOVA followed by Newman-Keuls multiple

[5] = test system: c-Fos; test: Kainate-induced delayed c-Fos expression in hippocampal CA1 field; format: in vivo, rat; conditions: kainate 10 mg/Kg i.p.; 24 h; mean ± sem (n = 5)
Experimental: as §1, §2, §3, §4, §5, §6, §7

Compound: NGF: NGF
- SOD1 mRNA induction (previous findings) [1]: can induce SOD1 mRNA in a dose dependent manner

Compound: CC(N)Cc1ccccc1 (stereo not drawn) [amphetamine]
- neurotoxicity [2]: neurotoxic even at quite low concentrations

Compound: C#CCNC1CCc2ccccc21 (stereo not drawn) [N-propargyl-1-aminoindan]
- in vitro neuronal survival after glutamate toxicity [3]: effective in enhancing the in vitro neuronal survival

Compound: C=C(C)[C@H]1CN[C@H](C(=O)O)[C@H]1CC(=O)O [Kainate, kainic acid]
- HSP70 (Kainate alone) [4]: 10.8 ± 3.1
- Delayed c-Fos (Kainate alone) [5]: 18.0 ± 4.5

Compound: CN[C@@H](C)Cc1ccccc1 [methamphetamine]
- neurotoxicity [2]: neurotoxic even at quite low concentrations
